The record followed here is US20060084648A1, “Ethynyl derivatives as factor xa inhibitors” (Merck Patent GmbH, priority 2003, published 2006).

Molecules are shown by their SMILES. pIC50: −log10 of the molar value.

One data set deals with T1, TF/FVIIa (Homo sapiens, UniProt P08709).
T1 construct: Coagulation factor VIIa initiates the extrinsic part of the coagulation cascade
As to the kind of experiment: TF/factor VIIa inhibition (TF/FVIIa-IC50, pharmacological data). In kind it is biochemical. From the text: The inhibition of factor VIIa by the compounds according to the invention and the measurement of the anticoagulant and antithrombotic activity can be determined by conventional in-vitro or in-vivo methods. A conventional method for the measurement of the inhibition of factor VIIa is described, for example, by H. F. Ronning et al. in Thrombosis Research 1996, 84, 73-81.

For a further data set, the target named is FXa (Homo sapiens, UniProt P00742). Briefly: Factor Xa inhibition (FXa-IC50, pharmacological data). In kind it is biochemical. From the text: The inhibition of factor Xa by the compounds according to the invention and the measurement of the anticoagulant and antithrombotic activity can be determined by conventional in-vitro or in-vivo methods. A suitable method is described, for example, by J. Hauptmann et al. in Thrombosis and Haemostasis 1990, 63, 220-223.
Chain of FXa (P00742 235-488 limits assumed): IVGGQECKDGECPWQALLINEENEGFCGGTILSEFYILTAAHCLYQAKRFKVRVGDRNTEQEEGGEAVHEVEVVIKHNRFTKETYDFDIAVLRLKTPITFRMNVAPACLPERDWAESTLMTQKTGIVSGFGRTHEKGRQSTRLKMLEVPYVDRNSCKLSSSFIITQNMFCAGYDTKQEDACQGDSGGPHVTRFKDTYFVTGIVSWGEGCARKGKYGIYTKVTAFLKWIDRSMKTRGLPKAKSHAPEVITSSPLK
Chain of FXa (P00742 41-179 limits assumed): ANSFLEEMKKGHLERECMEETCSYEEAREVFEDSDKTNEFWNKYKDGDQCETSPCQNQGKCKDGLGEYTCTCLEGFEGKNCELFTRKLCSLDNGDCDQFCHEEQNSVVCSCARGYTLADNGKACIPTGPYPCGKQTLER
The inhibition of factor Xa can be measured, for example by the method of T. Hara et al. in Thromb. Haemostas. 1994, 71, 314-319.

One may read the pIC50 as −log10 of the IC50, conventionally taken in molar units. Lower therefore signals a high IC50. One may read the melting point as the temperature, or range, at which the solid turns liquid.

T1 sequence (P08709 213-466 limits assumed): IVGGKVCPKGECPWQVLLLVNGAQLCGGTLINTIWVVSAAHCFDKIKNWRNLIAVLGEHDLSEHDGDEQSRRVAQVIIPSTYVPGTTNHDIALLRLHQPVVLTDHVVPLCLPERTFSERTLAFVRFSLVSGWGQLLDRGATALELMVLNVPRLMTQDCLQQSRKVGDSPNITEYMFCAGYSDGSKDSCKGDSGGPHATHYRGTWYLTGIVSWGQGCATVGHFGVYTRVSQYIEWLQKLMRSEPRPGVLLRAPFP
T1 sequence (P08709 61-212 limits assumed): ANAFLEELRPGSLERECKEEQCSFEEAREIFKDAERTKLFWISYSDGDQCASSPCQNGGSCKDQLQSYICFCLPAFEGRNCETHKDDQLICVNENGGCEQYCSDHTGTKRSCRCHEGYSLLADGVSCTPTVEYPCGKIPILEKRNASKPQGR
T1 sequence (P13726 33-295 partner): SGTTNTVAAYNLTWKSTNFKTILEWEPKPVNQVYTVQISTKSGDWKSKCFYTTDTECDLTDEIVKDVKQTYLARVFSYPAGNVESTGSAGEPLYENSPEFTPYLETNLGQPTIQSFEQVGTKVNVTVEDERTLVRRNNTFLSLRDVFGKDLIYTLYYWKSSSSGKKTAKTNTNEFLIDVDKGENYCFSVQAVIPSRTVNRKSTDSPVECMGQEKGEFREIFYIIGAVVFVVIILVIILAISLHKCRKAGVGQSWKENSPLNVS

In turn, `C#Cc1ccc(NC(=O)N[C@H](CCC)C(=O)Nc2ccc(N3CCOCC3=O)cc2)cc1` [AA, (R)-2-[3-(4-ethynylphenyl)ureido]-N-[4-(3-oxomorpholin-4-yl)-phenyl]valeramide] showed a melting point of 182 °C. The pIC50 on TF/FVIIa was 7.06. This compound had a pIC50 against FXa of 7.60.
As to `C#Cc1ccc(NC(=O)N[C@H](CC(C)C)C(=O)Nc2ccc(N3CCOCC3=O)cc2)cc1` [AB, (R)-2-[3-(4-ethynylphenyl)ureido]-N-[4-(3-oxomorpholin-4-yl)phenyl]4-methylvaleramide], the pIC50 was 7.39 against TF/FVIIa and 7.44 at FXa.
For `C#Cc1ccc(NC(=O)N[C@H](CC(C)C)C(=O)Nc2ccc(N3CCNC3=N)cc2)cc1` [AC, (R)-2-[3-(4-ethynylphenyl)ureido]-N-[4-(2-iminoimidazolidin-1-yl)phenyl]4-methylvaleramide], in that order: 6.62 and 7.34.
For `C#Cc1ccc(NC(=O)N[C@H](CO)C(=O)Nc2ccc(N3CCOCC3=O)cc2)cc1` [Compound 5], in that order: 7.48 and 7.38.
In the same order, the values of `C#Cc1ccc(NC(=O)N[C@H](COC)C(=O)Nc2ccc(N3CCOCC3=O)cc2)cc1` [Compound 6] are 7.43 and 7.66.
